Assay results: patent publication US9527867B2, “Antibacterial biaromatic derivatives” (Actelion Pharmaceuticals Ltd., priority 2013, dated 2016)
Values after ≈ are worked out from the molar mass of the structure shown.

Experiments:
Test in all cases: Bacterial growth minimal inhibitory concentration (broth microdilution, CLSI M7-A7)
Format in all cases: cell-based
[1] = tested on: Acinetobacter baumannii T6474; details: Acinetobacter baumannii, T6474, cation-adjusted Mueller-Hinton Broth, multiply-resistant strain (in particular quinolone-resistant)
Protocol: (§1) Minimal Inhibitory Concentrations (MICs; mg/L) were determined in cation-adjusted Mueller-Hinton Broth by a microdilution method following the description given in “Methods for Dilution Antimicrobial Susceptibility Tests for Bacteria that Grow Aerobically”, Approved standard, 7th ed., Clinical and Laboratory Standards Institute (CLSI) Document M7-A7, Wayne, Pa., USA (2006).
(§2) All Example compounds were tested against several Gram positive and Gram negative bacteria. […] Staphylococcus aureus A798, Enterococcus faecium A949 and Acinetobacter baumannii T6474 are multiply-resistant strains (in particular quinolone-resistant), while Moraxella catarrhalis A894 is a quinolone-sensitive strain and Staphylococcus aureus ATCC29213 is a methicillin-sensitive and quinolone-sensitive strain.

[2] = tested on: Staphylococcus aureus ATCC29213; details: Staphylococcus aureus, ATCC29213, cation-adjusted Mueller-Hinton Broth, methicillin-sensitive and quinolone-sensitive strain, read-out: MIC for S. aureus ATCC29213
Protocol: as §1, §2

[3] = tested on: Enterococcus faecium A949; details: Enterococcus faecium, A949, cation-adjusted Mueller-Hinton Broth, multiply-resistant strain (in particular quinolone-resistant), read-out: MIC for E. faecium A949
Protocol: as §1, §2

[4] = tested on: Staphylococcus aureus A798; details: Staphylococcus aureus, A798, cation-adjusted Mueller-Hinton Broth, multiply-resistant strain (in particular quinolone-resistant), read-out: MIC for S. aureus A798
Protocol: as §1, §2

[5] = tested on: Moraxella catarrhalis A894; details: Moraxella catarrhalis, A894, cation-adjusted Mueller-Hinton Broth, quinolone-sensitive strain
Protocol: as §1, §2

MIC [1] [µg/mL]	MIC [2] [µg/mL]	MIC [3] [µg/mL]	MIC [4] [µg/mL]	MIC [5] [µg/mL]	SMILES
0.5 (≈ 1.02 µM)	0.25 (≈ 0.511 µM)	8 (≈ 16.3 µM)	0.125 (≈ 0.255 µM)	≤ 0.063	CCOc1cncc(-c2cccc(CNCC[C@H]3CN(c4ccc5c(n4)NC(=O)CO5)C(=O)O3)c2)c1 [Example 84, 6-((S)-5-{2-[3-(5-ethoxy-pyridin-3-yl)-benzylamino]-ethyl}-2-oxo-oxazolidin-3-yl)-4H-pyrido[3,2-b][1,4]oxazin-3-one]
8 (≈ 15.5 µM)	2 (≈ 3.89 µM)	8 (≈ 15.5 µM)	1 (≈ 1.94 µM)	0.125 (≈ 0.243 µM)	O=C1COc2ccc(N3C[C@H](CCNCc4cccc(-c5cccc(OCC6CC6)c5)c4)OC3=O)nc2N1 [Example 58, 6-((S)-5-{2-[(3′-cyclopropylmethoxy-biphenyl-3-ylmethyl)-amino]-ethyl}-2-oxo-oxazolidin-3-yl)-4H-pyrido[3,2-b][1,4]oxazin-3-one]
0.063 (≈ 0.128 µM)	≤ 0.016	0.25 (≈ 0.509 µM)	≤ 0.016	≤ 0.016	COc1cccc(-c2cccc(CNCC[C@H]3CN(c4ccc5c(n4)NC(=O)CO5)C(=O)O3)c2O)n1 [Example 93, 6-((S)-5-{2-[2-hydroxy-3-(6-methoxy-pyridin-2-yl)-benzylamino]-ethyl}-2-oxo-oxazolidin-3-yl)-4H-pyrido[3,2-b][1,4]oxazin-3-one]
0.25 (≈ 0.51 µM)	0.125 (≈ 0.255 µM)	1 (≈ 2.04 µM)	0.125 (≈ 0.255 µM)	0.031 (≈ 0.0632 µM)	COc1cccc(-c2ccnc(CNCC[C@@H]3CN(c4ccc5c(c4)NC(=O)CS5)C(=O)O3)c2)c1 [Example 21, 6-[(R)-5-(2-{[4-(3-methoxy-phenyl)-pyridin-2-ylmethyl]-amino}-ethyl)-2-oxo-oxazolidin-3-yl]-4H-benzo[1,4]thiazin-3-one]
2 (≈ 4.09 µM)	1 (≈ 2.05 µM)	8 (≈ 16.4 µM)	0.5 (≈ 1.02 µM)	0.063 (≈ 0.129 µM)	CCOc1cccc(-c2cccc(CNCC[C@H]3CN(c4ccc5c(n4)NC(=O)CO5)C(=O)O3)c2)c1 [Example 70, 6-((S)-5-{2-[(3′-ethoxy-biphenyl-3-ylmethyl)-amino]-ethyl}-2-oxo-oxazolidin-3-yl)-4H-pyrido[3,2-b][1,4]oxazin-3-one]
0.125 (≈ 0.264 µM)	0.063 (≈ 0.133 µM)	1 (≈ 2.11 µM)	0.063 (≈ 0.133 µM)	≤ 0.016	COc1cccc(-c2cccc(CNCCc3cn(-c4ccc5c(n4)NC(=O)CO5)c(=O)o3)c2)n1 [Example 35, 6-(5-{2-[3-(6-methoxy-pyridin-2-yl)-benzylamino]-ethyl}-2-oxo-oxazol-3-yl)-4H-pyrido[3,2-b][1,4]oxazin-3-one]
0.5 (≈ 1.05 µM)	0.25 (≈ 0.527 µM)	4 (≈ 8.43 µM)	0.25 (≈ 0.527 µM)	0.031 (≈ 0.0653 µM)	COc1cccc(-c2cccc(CNCC[C@H]3CN(c4ccc5c(n4)NC(=O)CO5)C(=O)O3)c2)c1 [Example 4, 6-((S)-5-{2-[(3′-methoxy-biphenyl-3-ylmethyl)-amino]-ethyl}-2-oxo-oxazolidin-3-yl)-4H-pyrido[3,2-b][1,4]oxazin-3-one]
1 (≈ 2.13 µM)	1 (≈ 2.13 µM)	16 (≈ 34 µM)	2 (≈ 4.25 µM)	≤ 0.063	N#Cc1cccnc1-c1cccc(CNCC[C@H]2CN(c3ccc4c(n3)NC(=O)CO4)C(=O)O2)c1 [Example 62, 2-[3-({2-[(S)-2-oxo-3-(3-oxo-3,4-dihydro-2H-pyrido[3,2-b][1,4]oxazin-6-yl)-oxazolidin-5-yl]-ethylamino}-methyl)-phenyl]-nicotinonitrile]
8 (≈ 16 µM)	0.125 (≈ 0.25 µM)	4 (≈ 8.01 µM)	0.5 (≈ 1 µM)	≤ 0.016	COc1cccc(-c2cccc(CNCC[C@H]3CN(c4ccc5c(n4)NC(=O)CO5)C(=O)O3)c2)c1C#N [Example 86, 3-methoxy-3′-({2-[(S)-2-oxo-3-(3-oxo-3,4-dihydro-2H-pyrido[3,2-b][1,4]oxazin-6-yl)-oxazolidin-5-yl]-ethylamino}-methyl)-biphenyl-2-carbonitrile]
1 (≈ 2.13 µM)	0.5 (≈ 1.06 µM)	16 (≈ 34 µM)	2 (≈ 4.25 µM)	≤ 0.063	N#Cc1ncccc1-c1cccc(CNCC[C@H]2CN(c3ccc4c(n3)NC(=O)CO4)C(=O)O2)c1 [Example 73, 3-[3-({2-[(S)-2-oxo-3-(3-oxo-3,4-dihydro-2H-pyrido[3,2-b][1,4]oxazin-6-yl)-oxazolidin-5-yl]-ethylamino}-methyl)-phenyl]-pyridine-2-carbonitrile]
1 (≈ 2.1 µM)	0.25 (≈ 0.525 µM)	4 (≈ 8.39 µM)	1 (≈ 2.1 µM)	0.063 (≈ 0.132 µM)	COc1cccc(-c2nccc(CNCC[C@H]3CN(c4ccc5c(n4)NC(=O)CO5)C(=O)O3)n2)c1 [Example 102, 6-[(S)-5-(2-{[2-(3-methoxy-phenyl)-pyrimidin-4-ylmethyl]-amino}-ethyl)-2-oxo-oxazolidin-3-yl]-4H-pyrido[3,2-b][1,4]oxazin-3-one]
16 (≈ 31.7 µM)	4 (≈ 7.93 µM)	16 (≈ 31.7 µM)	4 (≈ 7.93 µM)	0.125 (≈ 0.248 µM)	COc1ccc(-c2cccc(CNCC[C@H]3CN(c4ccc5c(n4)NC(=O)CO5)C(=O)O3)c2)cc1OC [Example 48, 6-((S)-5-{2-[(3′,4′-dimethoxy-biphenyl-3-ylmethyl)-amino]-ethyl}-2-oxo-oxazolidin-3-yl)-4H-pyrido[3,2-b][1,4]oxazin-3-one]
1 (≈ 1.98 µM)	0.5 (≈ 0.989 µM)	4 (≈ 7.91 µM)	0.5 (≈ 0.989 µM)	0.063 (≈ 0.125 µM)	COc1cc(-c2cccc(CNCC[C@@H]3CN(c4ccc5c(c4)NC(=O)CS5)C(=O)O3)c2)ccc1O [Example 7, 6-((R)-5-{2-[(4′-hydroxy-3′-methoxy-biphenyl-3-ylmethyl)-amino]-ethyl}-2-oxo-oxazolidin-3-yl)-4H-benzo[1,4]thiazin-3-one]
0.25 (≈ 0.509 µM)	0.063 (≈ 0.128 µM)	1 (≈ 2.03 µM)	0.063 (≈ 0.128 µM)	≤ 0.016	COc1ccnc(-c2cccc(CNCC[C@@H]3CN(c4ccc5c(c4)NC(=O)CS5)C(=O)O3)c2)n1 [Example 23, 6-((R)-5-{2-[3-(4-methoxy-pyrimidin-2-yl)-benzylamino]-ethyl}-2-oxo-oxazolidin-3-yl)-4H-benzo[1,4]thiazin-3-one]
1 (≈ 2.03 µM)	0.5 (≈ 1.02 µM)	4 (≈ 8.14 µM)	0.5 (≈ 1.02 µM)	0.063 (≈ 0.128 µM)	COc1cc(-c2cccc(CNCC[C@@H]3CN(c4ccc5c(c4)NC(=O)CS5)C(=O)O3)c2)ncn1 [Example 24, 6-((R)-5-{2-[3-(6-methoxy-pyrimidin-4-yl)-benzylamino]-ethyl}-2-oxo-oxazolidin-3-yl)-4H-benzo[1,4]thiazin-3-one]
0.5 (≈ 1 µM)	0.125 (≈ 0.25 µM)	2 (≈ 4 µM)	0.125 (≈ 0.25 µM)	≤ 0.016	COc1ccc(C#N)c(-c2cccc(CNCC[C@@H]3CN(c4ccc5c(n4)NC(=O)CO5)C(=O)O3)c2)c1 [Example 32, 5-methoxy-3′-({2-[(R)-2-oxo-3-(3-oxo-3,4-dihydro-2H-pyrido[3,2-b][1,4]oxazin-6-yl)-oxazolidin-5-yl]-ethylamino}-methyl)-biphenyl-2-carbonitrile]
0.5 (≈ 0.989 µM)	0.5 (≈ 0.989 µM)	8 (≈ 15.8 µM)	0.5 (≈ 0.989 µM)	≤ 0.016	COc1cc(O)cc(-c2cccc(CNCC[C@@H]3CN(c4ccc5c(c4)NC(=O)CS5)C(=O)O3)c2)c1 [Example 10, 6-((R)-5-{2-[(3′-hydroxy-5′-methoxy-biphenyl-3-ylmethyl)-amino]-ethyl}-2-oxo-oxazolidin-3-yl)-4H-benzo[1,4]thiazin-3-one]
0.25 (≈ 0.524 µM)	0.25 (≈ 0.524 µM)	8 (≈ 16.8 µM)	0.5 (≈ 1.05 µM)	0.031 (≈ 0.0649 µM)	COc1cnnc(-c2ccnc(CNCC[C@H]3CN(c4ccc5c(n4)NC(=O)CO5)C(=O)O3)c2)c1 [Example 111, (S)-6-(5-(2-(((4-(5-methoxypyridazin-3-yl)pyridin-2-yl)methyl)amino)ethyl)-2-oxooxazolidin-3-yl)-2H-pyrido[3,2-b][1,4]oxazin-3(4H)-one]
0.25 (≈ 0.51 µM)	0.125 (≈ 0.255 µM)	0.5 (≈ 1.02 µM)	0.063 (≈ 0.128 µM)	≤ 0.016	COc1cccc(-c2cccc(CNCCc3nn(-c4ccc5c(n4)NC(=O)CO5)c(=O)o3)c2O)n1 [Example 74, 6-(5-{2-[2-hydroxy-3-(6-methoxy-pyridin-2-yl)-benzylamino]-ethyl}-2-oxo-[1,3,4]oxadiazol-3-yl)-4H-pyrido[3,2-b][1,4]oxazin-3-one]
1 (≈ 2.1 µM)	2 (≈ 4.21 µM)	> 8	4 (≈ 8.41 µM)	0.125 (≈ 0.263 µM)	COc1cnnc(-c2cccc(CNCCc3nn(-c4ccc5c(n4)NC(=O)CO5)c(=O)o3)c2)c1 [Example 108, 6-(5-{2-[3-(5-methoxy-pyridazin-3-yl)-benzylamino]-ethyl}-2-oxo-[1,3,4]oxadiazol-3-yl)-4H-pyrido[3,2-b][1,4]oxazin-3-one]
0.5 (≈ 1.09 µM)	1 (≈ 2.17 µM)	16 (≈ 34.7 µM)	1 (≈ 2.17 µM)	≤ 0.063	O=C1COc2ccc(N3C[C@H](CCNCc4cccc(-c5cccc(O)c5)c4)OC3=O)nc2N1 [Example 63, 6-((S)-5-{2-[(3′-hydroxy-biphenyl-3-ylmethyl)-amino]-ethyl}-2-oxo-oxazolidin-3-yl)-4H-pyrido[3,2-b][1,4]oxazin-3-one]
